Experiment: molar heat capacity at constant volume; xn = mol fraction of the nth substance listed

CCCCCCCCCC [decane] + O=C=O
Details | molar heat capacity at constant volume [J/K/mol]
443.07 K, Fluid (supercritical or subcritical phases), Mass density=374.7 kg/m3, Isochoric Heat Capacity Apparatus, x1 = 0.095 | 344.18
443.68 K, Fluid (supercritical or subcritical phases), Mass density=374.7 kg/m3, Isochoric Heat Capacity Apparatus, x1 = 0.095 | 343.49
444.49 K, Fluid (supercritical or subcritical phases), Mass density=374.7 kg/m3, Isochoric Heat Capacity Apparatus, x1 = 0.095 | 342.85
447.32 K, Fluid (supercritical or subcritical phases), Mass density=457.5 kg/m3, Isochoric Heat Capacity Apparatus, x1 = 0.178 | 485.87
447.32 K, Liquid, iso, x1 = 0.178 | 568.28
447.95 K, Fluid (supercritical or subcritical phases), Mass density=457.5 kg/m3, Isochoric Heat Capacity Apparatus, x1 = 0.178 | 478.12
448.27 K, Fluid (supercritical or subcritical phases), Mass density=457.5 kg/m3, Isochoric Heat Capacity Apparatus, x1 = 0.178 | 482.3
448.55 K, Fluid (supercritical or subcritical phases), Mass density=457.5 kg/m3, Isochoric Heat Capacity Apparatus, x1 = 0.178 | 479.96
449.12 K, Fluid (supercritical or subcritical phases), Mass density=398.3 kg/m3, Isochoric Heat Capacity Apparatus, x1 = 0.095 | 331.01
451.39 K, Fluid (supercritical or subcritical phases), Mass density=201.8 kg/m3, Isochoric Heat Capacity Apparatus, x1 = 0.178 | 488.2
451.39 K, Liquid, iso, x1 = 0.178 | 574.18
452.33 K, Fluid (supercritical or subcritical phases), Mass density=457.5 kg/m3, Isochoric Heat Capacity Apparatus, x1 = 0.178 | 465.26
452.33 K, Fluid (supercritical or subcritical phases), Mass density=509.4 kg/m3, Isochoric Heat Capacity Apparatus, x1 = 0.095 | 318.95
453.23 K, Fluid (supercritical or subcritical phases), Mass density=457.5 kg/m3, Isochoric Heat Capacity Apparatus, x1 = 0.178 | 462.99
457.12 K, Fluid (supercritical or subcritical phases), Mass density=374.7 kg/m3, Isochoric Heat Capacity Apparatus, x1 = 0.095 | 340.82
457.77 K, Liquid, iso, x1 = 0.178 | 595.83
459 K, Fluid (supercritical or subcritical phases), Mass density=477.6 kg/m3, Isochoric Heat Capacity Apparatus, x1 = 0.095 | 323.65
460.15 K, Liquid, iso, x1 = 0.178 | 606.1
460.39 K, Fluid (supercritical or subcritical phases), Mass density=320.2 kg/m3, Isochoric Heat Capacity Apparatus, x1 = 0.095 | 354.21
460.69 K, Fluid (supercritical or subcritical phases), Mass density=320.2 kg/m3, Isochoric Heat Capacity Apparatus, x1 = 0.095 | 351.33
460.89 K, Fluid (supercritical or subcritical phases), Mass density=320.2 kg/m3, Isochoric Heat Capacity Apparatus, x1 = 0.095 | 350
463.26 K, Fluid (supercritical or subcritical phases), Mass density=87 kg/m3, Isochoric Heat Capacity Apparatus, x1 = 0.095 | 712.69
463.26 K, Fluid (supercritical or subcritical phases), Mass density=398.3 kg/m3, Isochoric Heat Capacity Apparatus, x1 = 0.095 | 334.16
463.45 K, Fluid (supercritical or subcritical phases), Mass density=457.5 kg/m3, Isochoric Heat Capacity Apparatus, x1 = 0.178 | 459.11
463.65 K, Fluid (supercritical or subcritical phases), Mass density=87 kg/m3, Isochoric Heat Capacity Apparatus, x1 = 0.095 | 685.49
463.85 K, Fluid (supercritical or subcritical phases), Mass density=87 kg/m3, Isochoric Heat Capacity Apparatus, x1 = 0.095 | 688.16
464.05 K, Fluid (supercritical or subcritical phases), Mass density=87 kg/m3, Isochoric Heat Capacity Apparatus, x1 = 0.095 | 691.36
465.43 K, Fluid (supercritical or subcritical phases), Mass density=87 kg/m3, Isochoric Heat Capacity Apparatus, x1 = 0.095 | 690.82
466.3 K, Fluid (supercritical or subcritical phases), Mass density=408.8 kg/m3, Isochoric Heat Capacity Apparatus, x1 = 0.178 | 493.61
467.05 K, Fluid (supercritical or subcritical phases), Mass density=408.8 kg/m3, Isochoric Heat Capacity Apparatus, x1 = 0.178 | 490.54
467.19 K, Fluid (supercritical or subcritical phases), Mass density=87 kg/m3, Isochoric Heat Capacity Apparatus, x1 = 0.095 | 706.83
467.97 K, Fluid (supercritical or subcritical phases), Mass density=408.8 kg/m3, Isochoric Heat Capacity Apparatus, x1 = 0.178 | 487.71
468.76 K, Fluid (supercritical or subcritical phases), Mass density=374.7 kg/m3, Isochoric Heat Capacity Apparatus, x1 = 0.095 | 336.34
468.76 K, Fluid (supercritical or subcritical phases), Mass density=408.8 kg/m3, Isochoric Heat Capacity Apparatus, x1 = 0.178 | 486.42
470.72 K, Fluid (supercritical or subcritical phases), Mass density=477.6 kg/m3, Isochoric Heat Capacity Apparatus, x1 = 0.095 | 326.31
471.2 K, Fluid (supercritical or subcritical phases), Mass density=281.4 kg/m3, Isochoric Heat Capacity Apparatus, x1 = 0.095 | 360.93
471.69 K, Fluid (supercritical or subcritical phases), Mass density=281.4 kg/m3, Isochoric Heat Capacity Apparatus, x1 = 0.095 | 359.81
471.89 K, Fluid (supercritical or subcritical phases), Mass density=281.4 kg/m3, Isochoric Heat Capacity Apparatus, x1 = 0.095 | 358.48
473.25 K, Fluid (supercritical or subcritical phases), Mass density=281.4 kg/m3, Isochoric Heat Capacity Apparatus, x1 = 0.095 | 350.91
474.61 K, Fluid (supercritical or subcritical phases), Mass density=457.5 kg/m3, Isochoric Heat Capacity Apparatus, x1 = 0.178 | 456.77
475.97 K, Fluid (supercritical or subcritical phases), Mass density=110.8 kg/m3, Isochoric Heat Capacity Apparatus, x1 = 0.095 | 594.8
476.12 K, Fluid (supercritical or subcritical phases), Mass density=110.8 kg/m3, Isochoric Heat Capacity Apparatus, x1 = 0.095 | 599.07
476.33 K, Fluid (supercritical or subcritical phases), Mass density=110.8 kg/m3, Isochoric Heat Capacity Apparatus, x1 = 0.095 | 591.07
476.36 K, Fluid (supercritical or subcritical phases), Mass density=320.2 kg/m3, Isochoric Heat Capacity Apparatus, x1 = 0.095 | 342.64
476.56 K, Fluid (supercritical or subcritical phases), Mass density=408.8 kg/m3, Isochoric Heat Capacity Apparatus, x1 = 0.178 | 472.21
476.75 K, Fluid (supercritical or subcritical phases), Mass density=110.8 kg/m3, Isochoric Heat Capacity Apparatus, x1 = 0.095 | 590.53
476.94 K, Fluid (supercritical or subcritical phases), Mass density=398.3 kg/m3, Isochoric Heat Capacity Apparatus, x1 = 0.095 | 336.82
477.33 K, Fluid (supercritical or subcritical phases), Mass density=110.8 kg/m3, Isochoric Heat Capacity Apparatus, x1 = 0.095 | 594.8
477.52 K, Fluid (supercritical or subcritical phases), Mass density=374.7 kg/m3, Isochoric Heat Capacity Apparatus, x1 = 0.095 | 337.73
477.52 K, Fluid (supercritical or subcritical phases), Mass density=375 kg/m3, Isochoric Heat Capacity Apparatus, x1 = 0.178 | 493.12
477.81 K, Fluid (supercritical or subcritical phases), Mass density=375 kg/m3, Isochoric Heat Capacity Apparatus, x1 = 0.178 | 495.64
478.2 K, Fluid (supercritical or subcritical phases), Mass density=375 kg/m3, Isochoric Heat Capacity Apparatus, x1 = 0.178 | 491.03
478.49 K, Fluid (supercritical or subcritical phases), Mass density=375 kg/m3, Isochoric Heat Capacity Apparatus, x1 = 0.178 | 492.57
479.84 K, Fluid (supercritical or subcritical phases), Mass density=408.8 kg/m3, Isochoric Heat Capacity Apparatus, x1 = 0.178 | 471.47
481.77 K, Fluid (supercritical or subcritical phases), Mass density=241 kg/m3, Isochoric Heat Capacity Apparatus, x1 = 0.095 | 380.35
481.96 K, Fluid (supercritical or subcritical phases), Mass density=241 kg/m3, Isochoric Heat Capacity Apparatus, x1 = 0.095 | 378.38
482.02 K, Fluid (supercritical or subcritical phases), Mass density=131.5 kg/m3, Isochoric Heat Capacity Apparatus, x1 = 0.095 | 517.93
482.41 K, Fluid (supercritical or subcritical phases), Mass density=131.5 kg/m3, Isochoric Heat Capacity Apparatus, x1 = 0.095 | 521.08
483.31 K, Fluid (supercritical or subcritical phases), Mass density=241 kg/m3, Isochoric Heat Capacity Apparatus, x1 = 0.095 | 370.32
483.37 K, Fluid (supercritical or subcritical phases), Mass density=131.5 kg/m3, Isochoric Heat Capacity Apparatus, x1 = 0.095 | 528.44
485.04 K, Fluid (supercritical or subcritical phases), Mass density=281.4 kg/m3, Isochoric Heat Capacity Apparatus, x1 = 0.095 | 352.45

From the NIST ThermoML archive (doi:10.1007/s10765-006-0056-z)
